Data from ChEMBL document CHEMBL1139872, “A high-throughput screen for aggregation-based inhibition in a large compound library” (J Med Chem, 2007).

Legend:
Beta-lactamase [1] = molecular target: T1, Beta-lactamase (Escherichia coli K-12, UniProt P00811)
Description: Aggregate based-inhibition of Escherichia coli AmpC beta lactamase using stringent assay conditions in presence of 0.01% Triton X-100 detergent

Beta-lactamase [2] = molecular target: T1, Beta-lactamase; assay: Inhibition of Escherichia coli AmpC beta lactamase using relaxed assay conditions in presence of 0.00001% Triton X-100 detergent

T1 sequence (P00811 whole entry): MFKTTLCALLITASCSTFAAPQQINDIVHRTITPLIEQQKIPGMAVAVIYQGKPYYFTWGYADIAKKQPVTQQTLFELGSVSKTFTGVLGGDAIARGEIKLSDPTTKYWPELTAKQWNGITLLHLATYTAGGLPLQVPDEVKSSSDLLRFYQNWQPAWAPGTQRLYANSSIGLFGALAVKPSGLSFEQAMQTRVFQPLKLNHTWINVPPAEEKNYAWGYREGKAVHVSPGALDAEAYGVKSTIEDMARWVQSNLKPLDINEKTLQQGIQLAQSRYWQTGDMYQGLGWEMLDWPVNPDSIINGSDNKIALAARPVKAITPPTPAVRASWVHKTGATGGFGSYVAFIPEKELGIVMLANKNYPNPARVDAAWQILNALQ

| Compound | IC50 (Beta-lactamase [1]) | IC50 (Beta-lactamase [2]) |
| --- | --- | --- |
| Clc1ccccc1C(c1ccccc1)(c1ccccc1)n1ccnc1 [CLOTRIMAZOLE] | 150 µM | 35 µM |
| O=C(Nc1cccc2ccccc12)c1ccc(Br)o1 | > 200 µM | 120 µM |
| Cc1cccc(OCC(=O)Nc2cccc(-c3nnc(-c4ccccc4)o3)c2)c1C | > 66 µM | 13 µM |
| Fc1c(F)c(F)c(CSc2nc3ccccc3[nH]2)c(F)c1F | > 300 µM | 130 µM |
| Clc1ccc(CSC(Cn2ccnc2)c2ccc(Cl)cc2Cl)cc1 (stereo not given) [SULCONAZOLE] | 100 µM | 20 µM |
| O=c1[nH]c2cc(Cl)ccc2c(O)c1-c1cccc(Oc2ccccc2)c1 | 126 µM | 22 µM |
| O=C(Nc1ccc(Oc2ccc(NC(=O)c3ccco3)c(NC(=O)c3ccco3)c2)cc1)c1ccco1 | 40 µM | 20 µM |
| Cc1cc2c(C(C)C)c(O)c(O)c(C=O)c2c(O)c1-c1c(C)cc2c(C(C)C)c(O)c(O)c(C=O)c2c1O [GOSSYPOL] | 82 µM | 46 µM |
| Cc1ccc2nc(-c3ccccc3)cc(O)c2c1 | > 100 µM | > 100 µM |
| COc1c(F)c(F)c(C(=O)Nc2ccc(NC(=O)c3ccco3)cc2)c(F)c1F | > 66 µM | 20 µM |
